{
  "source": "patent US20170348375A1",
  "about": "“DISLODGEMENT AND RELEASE OF HSC FROM THE BONE MARROW STEM CELL NICHE USING ALPHA9 INTEGRIN ANTAGONISTS” (COMMONWEALTH SCIENTIFIC AND INDUSTRIAL RESEARCH ORGANISATION, priority 2014, published 2017)",
  "key": {"[1]": {"target": "T1, human integrin α4β1 (Homo sapiens, UniProt P05556+P13612)", "T1 construct": "expressed in transfected cells; host or cells: human glioblastoma LN18 (ATCC CRL-2610), retrovirally transduced", "T1 sequence (P13612 34-1032)": "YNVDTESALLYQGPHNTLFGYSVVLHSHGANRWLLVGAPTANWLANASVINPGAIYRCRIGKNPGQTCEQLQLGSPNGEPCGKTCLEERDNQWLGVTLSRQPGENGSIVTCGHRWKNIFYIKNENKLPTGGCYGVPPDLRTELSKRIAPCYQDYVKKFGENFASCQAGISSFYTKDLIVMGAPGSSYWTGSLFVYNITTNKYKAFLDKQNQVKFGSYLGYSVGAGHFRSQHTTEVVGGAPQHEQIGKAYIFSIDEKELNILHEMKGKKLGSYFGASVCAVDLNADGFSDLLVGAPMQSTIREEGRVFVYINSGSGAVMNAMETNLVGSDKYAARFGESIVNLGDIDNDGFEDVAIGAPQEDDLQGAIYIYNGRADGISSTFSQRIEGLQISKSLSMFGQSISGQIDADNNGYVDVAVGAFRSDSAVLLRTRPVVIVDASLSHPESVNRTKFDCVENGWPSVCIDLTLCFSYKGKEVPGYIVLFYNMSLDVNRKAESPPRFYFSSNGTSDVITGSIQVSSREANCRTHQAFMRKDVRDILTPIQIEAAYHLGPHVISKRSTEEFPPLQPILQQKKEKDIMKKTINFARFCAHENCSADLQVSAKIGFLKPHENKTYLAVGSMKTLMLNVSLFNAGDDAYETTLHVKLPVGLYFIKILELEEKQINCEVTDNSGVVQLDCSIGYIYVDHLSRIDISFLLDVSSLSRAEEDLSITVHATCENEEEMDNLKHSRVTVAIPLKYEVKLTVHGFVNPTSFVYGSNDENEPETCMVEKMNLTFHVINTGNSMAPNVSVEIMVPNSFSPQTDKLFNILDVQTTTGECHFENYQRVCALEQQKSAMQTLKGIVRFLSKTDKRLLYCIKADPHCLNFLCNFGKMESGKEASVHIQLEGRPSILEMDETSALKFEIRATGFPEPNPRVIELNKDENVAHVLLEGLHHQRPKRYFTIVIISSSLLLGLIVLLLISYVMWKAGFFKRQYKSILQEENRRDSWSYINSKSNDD", "T1 sequence (P05556 21-798)": "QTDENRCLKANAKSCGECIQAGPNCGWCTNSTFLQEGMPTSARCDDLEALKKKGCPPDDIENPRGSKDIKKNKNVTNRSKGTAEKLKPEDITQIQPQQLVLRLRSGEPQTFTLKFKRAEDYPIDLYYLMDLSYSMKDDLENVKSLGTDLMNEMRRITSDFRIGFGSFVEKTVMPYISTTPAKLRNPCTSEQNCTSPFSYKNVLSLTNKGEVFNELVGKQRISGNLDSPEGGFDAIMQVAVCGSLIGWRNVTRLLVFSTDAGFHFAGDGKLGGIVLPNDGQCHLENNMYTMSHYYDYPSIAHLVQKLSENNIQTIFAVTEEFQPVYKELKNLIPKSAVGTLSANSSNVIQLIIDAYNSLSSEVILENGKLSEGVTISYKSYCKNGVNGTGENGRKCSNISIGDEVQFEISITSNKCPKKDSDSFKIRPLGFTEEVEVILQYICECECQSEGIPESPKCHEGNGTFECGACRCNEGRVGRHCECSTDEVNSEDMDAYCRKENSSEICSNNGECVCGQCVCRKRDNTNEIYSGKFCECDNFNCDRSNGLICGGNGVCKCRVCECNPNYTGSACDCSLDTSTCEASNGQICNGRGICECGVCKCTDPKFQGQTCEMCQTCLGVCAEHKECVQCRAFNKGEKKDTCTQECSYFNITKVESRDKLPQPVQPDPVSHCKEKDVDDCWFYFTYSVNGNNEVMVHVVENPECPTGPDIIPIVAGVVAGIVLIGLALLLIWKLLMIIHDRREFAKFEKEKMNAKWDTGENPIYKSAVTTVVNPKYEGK", "assay": "Saturation binding to α4β1 over-expressing LN18 cells (flow cytometry)", "conditions": "for Kd: α4β1 LN18 cells, read-out: Kd (dissociation constant), α4β1", "description": "(§1) Stable LN18 cells ((ATCC number: CRL-2610) over-expressing integrin α4β1 (LN18 α4β1) or α9β1 (LN18 α9β1)) were generated by retroviral transduction using the pMSCV-hITGA4-IRES-hITGB1 and pMSCV-hITGA9-IRES-hITGB1 vectors as previously described in J Grassinger, et al Blood, 2009, 114, 49-59 and were maintained in DMEM supplemented with 2 mM […] in 10% FBS. Transduced cells were selected by two rounds of FACS using 2.5 μg ml^−1 PE-Cy5-conjugated mouse-anti-human α4 antibody (BD Bioscience) or 20 μg ml^−1 of mouse-anti-human α9β1 antibody (Millipore) in PBS-2% FBS, followed by 0.5 μg ml^−1 of PE-conjugated goat-anti-mouse IgG (BD Bio-science). Silencing of α4 expression in LN18 and LN18 α9β1 cells was performed as described above using pSM2c-shITGA4 (Open Biosystems). α4-silenced LN18 cells (control cell line; LN18 SiA4) and LN18 α9β1 (LN18 α9β1SiA4) were negatively selected for α4 expression using FACS.\n(§2) The cells were incubated at 37° C. for 60 min, washed once with TBS-2% FBS, dry pelleted and resuspended in the relevant binding buffer for flow cytometric analysis. Mean channel fluorescence was plotted against concentration and fitted to a one-site saturation ligand binding curve using GraphPad Prism 6. The dissociation constant, Kd was determined from the curves."}, "[2]": {"target": "T2, human integrin α9β1 (Homo sapiens, UniProt P05556+Q13797)", "T2 construct": "expressed in transfected cells; host or cells: human glioblastoma LN18 (ATCC CRL-2610), retrovirally transduced; α4 silenced with pSM2c-shITGA4", "T2 sequence (Q13797 30-1035)": "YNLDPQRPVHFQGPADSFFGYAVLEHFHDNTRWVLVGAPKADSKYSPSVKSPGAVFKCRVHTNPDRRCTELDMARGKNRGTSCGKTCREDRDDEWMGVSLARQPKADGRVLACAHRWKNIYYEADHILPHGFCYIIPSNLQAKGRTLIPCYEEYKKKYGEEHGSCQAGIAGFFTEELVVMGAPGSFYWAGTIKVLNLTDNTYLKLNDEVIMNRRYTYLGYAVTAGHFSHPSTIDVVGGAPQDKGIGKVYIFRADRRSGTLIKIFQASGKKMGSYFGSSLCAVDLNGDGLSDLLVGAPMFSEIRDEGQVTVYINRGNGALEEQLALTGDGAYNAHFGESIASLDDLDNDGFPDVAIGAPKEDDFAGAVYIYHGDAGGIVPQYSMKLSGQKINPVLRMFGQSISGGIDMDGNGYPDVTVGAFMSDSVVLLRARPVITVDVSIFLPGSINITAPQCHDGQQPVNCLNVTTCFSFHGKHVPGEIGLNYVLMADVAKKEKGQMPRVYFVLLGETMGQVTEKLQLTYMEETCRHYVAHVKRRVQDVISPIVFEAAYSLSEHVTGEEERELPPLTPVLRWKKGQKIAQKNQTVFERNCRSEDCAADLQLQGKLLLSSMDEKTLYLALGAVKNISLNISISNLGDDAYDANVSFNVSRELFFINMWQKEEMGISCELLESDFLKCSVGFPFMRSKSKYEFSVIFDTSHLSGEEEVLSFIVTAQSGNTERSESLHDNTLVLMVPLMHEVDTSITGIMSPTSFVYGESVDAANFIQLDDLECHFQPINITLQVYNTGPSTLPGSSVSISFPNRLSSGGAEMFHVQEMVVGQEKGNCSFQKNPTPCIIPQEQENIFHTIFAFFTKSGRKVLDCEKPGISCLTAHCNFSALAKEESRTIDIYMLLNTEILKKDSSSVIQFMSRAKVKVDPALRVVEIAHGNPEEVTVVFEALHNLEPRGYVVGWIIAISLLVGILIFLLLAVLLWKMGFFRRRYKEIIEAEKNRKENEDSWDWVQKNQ", "T2 sequence (P05556 21-798)": "as the sequence (P05556 21-798) above", "assay": "Saturation binding to α9β1 over-expressing LN18 cells (flow cytometry)", "conditions": "for Kd: α9β1 LN18 cells, read-out: Kd (dissociation constant), α9β1", "description": "as §1, §2"}, "[3]": {"tested_on": "human cord blood mononuclear cells (MNC)", "assay": "In vitro R-BC154 binding to human cord blood mononuclear cells", "assay_type": "cell-based", "description": "Mononuclear cells (MNC) were isolated from cord blood as previously described in Nilsson, S. K. et al Blood 106, 1232-1239, (2005) and Grassinger, J. et al. Blood 114, 49-59, (2009). MNCs were incubated with a lineage antibody cocktail containing mouse anti-human CD3, CD11b, CD14, CD16, CD20, CD24, and CD235a (BD) and then treated with two rounds of Dynal sheep anti-mouse IgG beads (Invitrogen, Carlsbad, Calif.) at a ratio of 2 beads per cell for 5 min and then 10 min at 4° C. with constant rotation. Enriched MNC were stained with CD34-fluorescein isothiocyanate (FITC) CD34^+ cells purified by FACS.\n(§3) Cells were washed with cold PBS (2% F BS) and then immunolabelled as described in “Antibody Cocktails” prior to flow cytometric analysis."}, "[4]": {"tested_on": "bone marrow progenitor cells (LSK) and HSC (LSKSLAM)", "assay": "In vivo bone marrow binding assay", "set-up": "species or system mouse", "description": "After 5 min, bone marrow cells were isolated as previously described in D. N. Haylock et al Stem Cells, 2007, 25, 1062-1069 and J. Grassinger, et al Cytokine, 2012, 58, 218-225. Briefly, one femur, tibia and iliac crest were excised and cleaned of muscle. After removing the epi- and metaphyseal regions, bones were flushed with PBS-2% FBS to obtain whole bone marrow, which were washed with PBS-2% FBS and then immunolabelled for flow cytometry. […] For staining progenitor cells (LSK; Lineage−Sca-1^+c-kit^+) and HSC (LSKSLAM; LSKCD150+CD48−), cells were labelled with a lineage cocktail (CD3, Ter-119, Gr-1, Mac-1, B220; all antibodies APC-Cy7 conjugated), anti-Sca-1-PB, anti-c-kit-AF647, anti-CD48-FITC and anti-CD150-BV650.\nas §3\nSorted cells were imaged using an Olympus BX51 microscope."}},
  "note": "Where two headings read alike, the source gives them in different places.",
  "data": [
    {"smiles": "CCN(CC)c1ccc2c(-c3ccc(S(=O)(=O)NCc4cn(C5CC(C(=O)NC(Cc6ccc(OC(=O)N7CCCC7)cc6)C(=O)O)N(S(=O)(=O)c6ccccc6)C5)nn4)cc3S(=O)(=O)[O-])c3ccc(=[N+](CC)CC)cc-3oc2c1", "note": "(centres unmarked) [R-BC154]", "values": [
      {"measurement": "Kd", "setting": "[1]; 1 mM Ca2+/Mg2+", "result": 38, "unit": "nM"},
      {"measurement": "increase in binding affinity towards α4β1 under Mn2+ activation compared to Ca2+/Mg2+", "setting": "[1]; 1 mM Mn2+ vs Ca2+/Mg2+", "result": 3.1, "unit": "fold"},
      {"measurement": "Kd", "setting": "[1]; 1 mM Mn2+", "result": 12.4, "unit": "nM"},
      {"measurement": "reduction in binding affinity to α4β1 compared to compound 22", "setting": "[1]; Ca2+/Mg2+ conditions", "result": 1.9, "unit": "fold"},
      {"measurement": "Kd", "setting": "[2]; 1 mM Ca2+/Mg2+", "result": 12.7, "unit": "nM"},
      {"measurement": "Kd", "setting": "[2]; 1 mM Mn2+", "result": 14.4, "unit": "nM"},
      {"measurement": "greater affinity for α9β1 than α4β1", "setting": "[2]; Ca2+/Mg2+ conditions", "result": 3, "unit": "fold"},
      {"measurement": "reduction in binding affinity to α9β1 compared to compound 22", "setting": "[2]; Ca2+/Mg2+ conditions", "result": 1.5, "unit": "fold"},
      {"measurement": "integrin binding in the absence of cations", "setting": "[2]; TBS buffer only, LN18 α9β1 cells (FIG. 4)", "result": "no integrin binding was observed"},
      {"measurement": "binding to human cord blood MNC", "setting": "[3]; 1 mM Ca2+/Mg2+ vs no cations", "result": "Divalent cation and dose dependent binding"},
      {"measurement": "binding to CD34+CD38− cells versus other MNC populations", "setting": "[3]; activating conditions", "result": "greater binding was observed on stem cell enriched CD34^+CD38^− cells compared to lineage-committed CD34^− cells"},
      {"measurement": "in vivo labelling of BM progenitor cells (LSK) and HSC (LSKSLAM)", "setting": "[4]; 10 mg kg−1 intravenously, C57 mice, vs un-injected mice", "result": "Increased cell-associated fluorescence"},
      {"measurement": "binding to BM LSK after s.c. treatment", "setting": "[4]; 30 mins post-s.c.", "result": "persistent binding"},
      {"measurement": "in vivo binding on α4−/−/α9−/− LSK cells", "setting": "[4]; conditional KO mice injected with R-BC154", "result": "No binding"},
      {"measurement": "proportion of R-BC154hi LSK and LSKSLAM cells, endosteal vs central BM", "setting": "[4]; i.v. administration, C57Bl/6 mice", "result": "greater proportion of R-BC154^hi cells"},
      {"measurement": "clearance following i.v. administration", "setting": "[4]; i.v., mice", "result": "< 5", "unit": "min"},
      {"measurement": "binding on LSK in the PB compared to BM", "setting": "[4]; s.c. administration", "result": "Minimal binding"}
    ]}
  ]
}
